According to patent US12679848B2, “Plasma kallikrein inhibitors” (Merck Sharp & Dohme LLC, priority 2020, dated 2026):

What was measured:
Human plasma kallikrein = target: T1, Human plasma kallikrein (Homo sapiens, UniProt P03952); experiment: Plasma Kallikrein Assay; type: biochemical; details: purified Human plasma kallikrein 0.5 nM, substrate Acetyl-K-P-R-AFC, HEPES pH 7.4; read-out: PKal IC50
T1 construct: yields a heavy chain (371 amino acids) and a light chain (248 amino acids); The active site of plasma kallikrein is contained in the light chain; purchased Enzyme Research Laboratories
Outline: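 Purified human plasma kallikrein at 0.5 nM final with substrate Acetyl-K-P-R-AFC at […], in 50 mM HEPES pH 7.4, 150 mM NaCl, 5 mM CaCl2, 0.1% PEG 8000, at rt or 37° C after enzyme-inhibitor equilibration. IC50 from four-parameter logistic fit of fluorescence rate; Ki via Cheng-Prusoff.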

human factor XIa = human factor XIa (Homo sapiens, UniProt P03951); experiment: Factor XIa Assay; type: biochemical; details: human factor XIa 0.04 nM, substrate GPR-AFC, 30 min pre-incubation, 25° C., pH 7.4; read-out: FXIa IC50
Chain of human factor XIa (P03951 388-625 limits assumed): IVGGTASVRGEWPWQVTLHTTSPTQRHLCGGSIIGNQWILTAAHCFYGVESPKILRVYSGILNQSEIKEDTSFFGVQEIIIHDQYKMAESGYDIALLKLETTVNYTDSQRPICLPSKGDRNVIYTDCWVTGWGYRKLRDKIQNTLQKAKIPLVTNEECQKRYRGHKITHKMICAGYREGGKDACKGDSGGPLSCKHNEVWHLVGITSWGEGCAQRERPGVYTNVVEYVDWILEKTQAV
Chain of human factor XIa (P03951 19-387 partner limits assumed): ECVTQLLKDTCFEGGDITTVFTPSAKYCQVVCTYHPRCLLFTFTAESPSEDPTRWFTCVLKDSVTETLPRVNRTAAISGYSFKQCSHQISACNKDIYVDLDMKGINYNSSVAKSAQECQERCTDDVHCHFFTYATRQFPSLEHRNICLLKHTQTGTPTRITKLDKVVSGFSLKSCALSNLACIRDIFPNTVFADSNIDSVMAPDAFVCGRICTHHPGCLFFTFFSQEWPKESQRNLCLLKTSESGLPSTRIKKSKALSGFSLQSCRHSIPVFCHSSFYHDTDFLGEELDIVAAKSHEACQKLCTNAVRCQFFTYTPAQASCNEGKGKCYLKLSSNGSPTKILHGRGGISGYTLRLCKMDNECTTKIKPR

T1 sequence (P03952 391-638 limits assumed): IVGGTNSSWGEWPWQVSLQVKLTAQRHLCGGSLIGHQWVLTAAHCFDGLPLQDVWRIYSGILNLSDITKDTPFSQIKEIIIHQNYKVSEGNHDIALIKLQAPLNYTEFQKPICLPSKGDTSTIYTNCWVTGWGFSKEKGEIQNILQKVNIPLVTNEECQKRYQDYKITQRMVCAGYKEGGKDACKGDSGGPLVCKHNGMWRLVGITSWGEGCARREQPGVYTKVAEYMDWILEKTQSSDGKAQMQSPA
T1 sequence (P03952 20-390 partner limits assumed): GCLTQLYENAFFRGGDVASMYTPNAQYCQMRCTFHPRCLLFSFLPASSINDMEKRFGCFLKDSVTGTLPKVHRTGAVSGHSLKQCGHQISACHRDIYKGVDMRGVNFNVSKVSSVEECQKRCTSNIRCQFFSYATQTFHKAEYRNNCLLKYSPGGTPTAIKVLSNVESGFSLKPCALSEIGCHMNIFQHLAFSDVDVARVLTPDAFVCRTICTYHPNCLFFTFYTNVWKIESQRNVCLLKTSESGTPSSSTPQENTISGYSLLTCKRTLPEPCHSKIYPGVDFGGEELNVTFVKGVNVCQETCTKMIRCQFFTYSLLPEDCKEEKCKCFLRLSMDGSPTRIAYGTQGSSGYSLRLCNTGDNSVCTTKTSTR

Row | IC50 (Human plasma kallikrein) [µM] | IC50 (human factor XIa) [µM] | Compound
1 | 0.0005 | 0.177 | Nc1c(C(=O)N2CCC[C@@]3(C2)OC(=O)Nc2ccc(Cl)c(F)c23)cnn1Cc1cccc(Cl)c1 [Example 6, (R)-1'-(5-Amino-1-(3-chlorobenzyl)-1H-pyrazole-4-carbonyl)-6-chloro-5-fluorospiro[benzo[d][1,3]oxazine-4,3'-piperidin]-2(1H)-one]
2 | 0.0081 | 0.476 | Nc1c(C(=O)N2CCC[C@@]3(C2)OC(=O)Nc2ccc(Cl)c(F)c23)cnn1CC1CCOCC1 [Example 12, (R)-1'-(5-Amino-1-((tetrahydro-2H-pyran-4-yl)methyl)-1H-pyrazole-4-carbonyl)-6-chloro-5-fluorospiro[benzo[d][1,3]oxazine-4,3'-piperidin]-2(1H)-one]
3 | 0.0038 | 0.012 | Nc1c(C(=O)N2CCC[C@@]3(C2)OC(=O)Nc2ccc(Cl)c(F)c23)cnn1-c1c(Cl)cncc1Cl [Example 102, (R)-1'-(5-Amino-1-(3,5-dichloropyridin-4-y1)-1H-pyrazole-4-carbonyl)-6-chloro-5-fluorospiro[benzo[d][1,3]oxazine-4,3'-piperidin]-2(1H)-one]
4 | 0.0012 | 0.167 | Nc1c(C(=O)N2CCC[C@@]3(C2)OC(=O)Nc2ccc(Cl)c(F)c23)cnn1C1(c2ccc(F)cc2)CCC1 [Example 46, (R)-1'-(5-Amino-1-(1-(4-fluorophenyl)cyclobutyl)-1H-pyrazole-4-carbonyl)-6-chloro-5-fluorospiro[benzo[d][1,3]oxazine-4,3'-piperidin]-2(1H)-one]
5 | 0.0029 | 0.932 | Nc1c(C(=O)N2CCC[C@@]3(C2)OC(=O)Nc2ccc(Cl)c(F)c23)cnn1C1(C(F)(F)F)CC[C@@H]2C[C@@H]21 (single isomer, unassigned) [Example 56, (R)-1'-(5-Amino-1-((1S,2S or R,5R)-2-(trifluoromethyl)bicyclo[3.1.0]hexan-2-y1)-1H-pyrazole-4-carbonyl)-6-chloro-5-fluorospiro[benzo[d][1,3]oxazine-4,3'-piperidin]-2(1H)-one]
6 | 0.0022 | 0.062 | CCC(C1CCOCC1)n1ncc(C(=O)N2CCC[C@@]3(C2)OC(=O)Nc2ccc(Cl)c(F)c23)c1N (single isomer, unassigned) [Example 112, (R)-1'-(5-Amino-1-((R or S)-1-(tetrahydro-2H-pyran-4-yl)propyl)-1H-pyrazole-4-carbonyl)-6-chloro-5-fluorospiro[benzo[d][1,3]oxazine-4,3'-piperidin]-2(1H)-one]
7 | 0.0284 | 0.739 | Nc1c(C(=O)N2CCC[C@@]3(C2)OC(=O)Nc2ccc(Cl)c(F)c23)cnn1-c1ccccc1Cl [Example 82, (R)-1'-(5-Amino-1-(2-chlorophenyl)-1H-pyrazole-4-carbonyl)-6-chloro-5-fluorospiro[benzo[d][1,3]oxazine-4,3'-piperidin]-2(1H)-one]
8 | 0.0133 | 1.08 | Nc1c(C(=O)N2CCC[C@@]3(C2)OC(=O)Nc2ccc(Cl)c(F)c23)cnn1-c1ccccc1OCC(F)(F)F [Example 99, (R)-1'-(5-Amino-1-(2-(2,2,2-trifluoroethoxy)phenyl)-1H-pyrazole-4-carbonyl)-6-chloro-5-fluorospiro[benzo[d][1,3]oxazine-4,3'-piperidin]-2(1H)-one]
9 | 0.0375 | 0.16 | Nc1c(C(=O)N2CCC[C@@]3(C2)OC(=O)Nc2ccc(Cl)c(F)c23)cnn1-c1ccc(Cl)cc1Cl [Example 65, (R)-1'-(5-Amino-1-(2,4-dichlorophenyl)-1H-pyrazole-4-carbonyl)-6-chloro-5-fluorospiro[benzo[d][1,3]oxazine-4,3'-piperidin]-2(1H)-one]
10 | 0.0157 | 1.08 | Nc1c(C(=O)N2CCC[C@@]3(C2)OC(=O)Nc2ccc(Cl)c(F)c23)cnn1C1CCCCC1 [Example 35, (R)-1'-(5-Amino-1-cyclohexyl-1H-pyrazole-4-carbonyl)-6-chloro-5-fluorospiro[benzo[d][1,3]oxazine-4,3'-piperidin]-2(1H)-one]
